# Source: patent US5215916A, “Super glucocorticoid receptors: receptors with increased affinity and specificity for glucocorticoid steriods” (priority 1991, dated 1993)
# Changes are numbered by the printed parent chain.
# Legend:
# [1] = target: T1, C656S mutant glucocorticoid receptor (Rattus norvegicus, UniProt P06536, C656S/D98G); test: Competition binding assay with [3H]Dex, COS-7 cytosol, C656S receptor; settings: for reduction in relative affinity on replacement of Cys-656 with serine: C656S vs wild type, 2.5 hr incubation
# T1 construct: Thus the full length receptor was removed from the VARO vector with BamHI and inserted into the SVL vector; expressed in transfected cells; host or cells: COS-7 (cytosol)
# T1 sequence (P06536 1-795 D98G/C656S): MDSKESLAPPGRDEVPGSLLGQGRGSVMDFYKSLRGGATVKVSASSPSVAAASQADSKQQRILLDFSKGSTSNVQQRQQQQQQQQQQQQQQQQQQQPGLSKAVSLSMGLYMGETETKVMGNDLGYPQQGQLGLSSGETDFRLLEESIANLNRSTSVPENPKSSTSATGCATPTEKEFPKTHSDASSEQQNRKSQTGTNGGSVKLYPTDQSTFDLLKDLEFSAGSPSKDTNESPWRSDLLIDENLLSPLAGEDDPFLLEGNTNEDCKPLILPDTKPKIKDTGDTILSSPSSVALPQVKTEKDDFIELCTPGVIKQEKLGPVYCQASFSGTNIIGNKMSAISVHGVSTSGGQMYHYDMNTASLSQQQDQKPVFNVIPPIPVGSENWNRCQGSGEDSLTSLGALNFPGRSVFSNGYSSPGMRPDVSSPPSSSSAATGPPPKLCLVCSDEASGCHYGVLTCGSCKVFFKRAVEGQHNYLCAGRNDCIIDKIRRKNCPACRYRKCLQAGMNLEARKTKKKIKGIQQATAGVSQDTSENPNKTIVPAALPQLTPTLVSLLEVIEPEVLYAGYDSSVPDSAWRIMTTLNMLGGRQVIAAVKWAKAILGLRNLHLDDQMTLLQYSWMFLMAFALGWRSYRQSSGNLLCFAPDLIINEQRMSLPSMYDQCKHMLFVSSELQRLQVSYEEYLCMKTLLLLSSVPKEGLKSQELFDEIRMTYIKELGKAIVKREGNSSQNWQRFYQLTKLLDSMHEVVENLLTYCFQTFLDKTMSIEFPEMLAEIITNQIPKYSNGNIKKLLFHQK
# Procedure: (§1) Monolayer cultures of COS-7 cells were grown in DMEM (Gibco) supplemented with 5% fetal bovine serum (FBS) (Biofluids) at 37° C. in a 5% CO2 incubator. Standard calcium phosphate transfection methods were used to introduce the wild type and mutant receptor expression vectors (pSVL) into COS-7 cells (100 mm plates [Costar] at a cell density of about 10^6 /plate were each treated with 10 μg of plasmid DNA). After ~16 hrs of incubation at 37° C. in a 5% CO2 incubator, the excess calcium phosphate and precipitate were removed by washing with phosphate buffered saline (PBS). The cells were incubated at 37° C. for another ~48 hr in DMEM/ 5% FBS and harvested by trypsinization followed by centrifugation (for 10 min at 1570 ×g) and washing 3 times with PBS. The washed cells were stored at -80° C. until used.
# (§2) Briefly, 30% cytosol solutions containing ~21 mM Na2 MoO4 were prepared with three parts COS-7 cell cytosol, 2 parts pH 9.5 TAPS buffer, and 5 parts pH 8.8 TAPS buffer. The total EtOH in each experiment was kept constant and at a level of ≤1%. […] After incubation for 2.5 hr, the [^3 H]Dex-Mes-labeled solutions were quick-frozen at -78° C. for subsequent SDS-polyacrylamide gel electrophoresis analysis. The specifically bound [^3 H]Dex was determined by first adding a 10% dextran-coated charcoal solution (added volume =20% of reaction solution volume) to remove free steroid and then subtracting the nonspecific binding seen in the presence of excess nonradioactive Dex.
# (§3) The average specific binding was determined after 2.5 or 24 hr of incubation as described above, expressed as percentage of the non-competed control and plotted versus the log10 of the concentration of the competing steroid.
# (§4) The initial data were collected from 2.5 hr binding assays because of concerns about the stability of the receptors over longer times.
# [2] = target: T2, C661S mutant glucocorticoid receptor (Rattus norvegicus, UniProt P06536, C661S/D98G); test: Competition binding assay with [3H]Dex, COS-7 cytosol, C661S receptor; settings: for decrease in relative affinity on mutation of Cys-661: C661S vs wild type, 2.5 hr incubation
# T2 construct: Thus the full length receptor was removed from the VARO vector with BamHI and inserted into the SVL vector; expressed in transfected cells; host or cells: COS-7 (cytosol)
# T2 sequence (P06536 1-795 D98G/C661S): T1 sequence (P06536 1-795 D98G/C656S) with S656C, C661S
# Procedure: as §1, §2, §3, §4
SMILES,Relative Ka of Steroid Binding to Receptor [1],reduction in relative affinity on replacement of Cys-656 with serine [1] [fold],Relative Ka of Steroid Binding to Receptor [2],decrease in relative affinity on mutation of Cys-661 [2],effect of mutation of Cys-661 on binding [2]
"C[C@]12CC[C@@H]3c4ccc(O)cc4CC[C@H]3[C@@H]1CC[C@@H]2O [17β-Estradiol, 17β-estradiol]",0.0015,≥ 10,0.0017 ± 0.0006,approximately 10 fold,
"C[C@]12CCC(=O)C=C1CC[C@@H]1[C@@H]2[C@@H](O)C[C@]2(C=O)[C@@H](C(=O)CO)CC[C@@H]12 [Aldosterone, aldosterone]",0.068,≤ 3,0.016 ± 0.007,approximately 10 fold,
CC#C[C@]1(O)CC[C@H]2[C@@H]3CCC4=CC(=O)CCC4=C3[C@@H](c3ccc(N(C)C)cc3)C[C@@]21C [RU486],3.4,,3.84 ± 1.36,,little effect
